# Test results taken from the NIST ThermoML archive (doi:10.1016/j.jct.2017.03.016).
# ± gives the expanded uncertainty stated by the source.
# Assays:
# [1] = for surface tension liquid-gas: Maximal bubble pressure; for mass density: 101.33 kPa, Liquid, Vibrating tube method
# [2] = refractive index (Na D-line) (dimensionless); details: 101.33 kPa, Liquid, Standard Abbe refractometry
smiles,measurement,setting,value
CCn1cc[n+](CCOC)c1.N#C[N-]C#N [1-ethyl-3-(2-methoxyethyl)imidazolium dicyanamide],surface tension liquid-gas,[1]; 298.15 K,51 ± 0.5 mN/m
same,mass density,[1]; 298.15 K,1113.6 ± 2.3 kg/m3
same,surface tension liquid-gas,[1]; 303.15 K,50.7 ± 0.5 mN/m
same,mass density,[1]; 303.15 K,1110.21 ± 2.3 kg/m3
same,surface tension liquid-gas,[1]; 308.15 K,50.4 ± 0.5 mN/m
same,mass density,[1]; 308.15 K,1106.83 ± 2.3 kg/m3
same,surface tension liquid-gas,[1]; 313.15 K,50.1 ± 0.5 mN/m
same,mass density,[1]; 313.15 K,1103.48 ± 2.3 kg/m3
same,surface tension liquid-gas,[1]; 318.15 K,49.8 ± 0.5 mN/m
same,mass density,[1]; 318.15 K,1100.15 ± 2.3 kg/m3
same,surface tension liquid-gas,[1]; 323.15 K,49.5 ± 0.5 mN/m
same,mass density,[1]; 323.15 K,1096.84 ± 2.3 kg/m3
same,surface tension liquid-gas,[1]; 328.15 K,49.3 ± 0.5 mN/m
same,mass density,[1]; 328.15 K,1093.53 ± 2.3 kg/m3
same,surface tension liquid-gas,[1]; 333.15 K,49.1 ± 0.5 mN/m
same,mass density,[1]; 333.15 K,1090.26 ± 2.3 kg/m3
same,surface tension liquid-gas,[1]; 338.15 K,48.8 ± 0.5 mN/m
same,mass density,[1]; 338.15 K,1087 ± 2.3 kg/m3
same,refractive index,[2]; 298.15 K,1.5053 ± 0.0031
same,refractive index,[2]; 303.15 K,1.504 ± 0.0031
same,refractive index,[2]; 308.15 K,1.5028 ± 0.0031
same,refractive index,[2]; 313.15 K,1.5017 ± 0.0031
same,refractive index,[2]; 318.15 K,1.5 ± 0.0031
same,refractive index,[2]; 323.15 K,1.4989 ± 0.0031
same,refractive index,[2]; 328.15 K,1.4977 ± 0.0031
same,refractive index,[2]; 333.15 K,1.496 ± 0.0031
same,refractive index,[2]; 338.15 K,1.4946 ± 0.0031
